Results: patent EP2925336B1, “NATURAL COMPOUNDS FOR USE IN THE TREATMENT OF BETA-2 ADRENERGIC RECEPTOR RELATED DISEASES” (Harmonic Pharma, priority 2012, dated 2014)

What was measured:
[1] = target: human β2-adrenergic receptor (Homo sapiens, UniProt P07550); assay: agonist effect on the human β2-adrenergic receptor, cellular cAMP accumulation assay (HTRF); format: cell-based; conditions: recombinant CHO cells; for EC50: 30 minutes at room temperature, read-out: ECso; for β2 adrenergic receptor agonist activity: summary in words
human β2-adrenergic receptor, sequence (P07550 whole entry): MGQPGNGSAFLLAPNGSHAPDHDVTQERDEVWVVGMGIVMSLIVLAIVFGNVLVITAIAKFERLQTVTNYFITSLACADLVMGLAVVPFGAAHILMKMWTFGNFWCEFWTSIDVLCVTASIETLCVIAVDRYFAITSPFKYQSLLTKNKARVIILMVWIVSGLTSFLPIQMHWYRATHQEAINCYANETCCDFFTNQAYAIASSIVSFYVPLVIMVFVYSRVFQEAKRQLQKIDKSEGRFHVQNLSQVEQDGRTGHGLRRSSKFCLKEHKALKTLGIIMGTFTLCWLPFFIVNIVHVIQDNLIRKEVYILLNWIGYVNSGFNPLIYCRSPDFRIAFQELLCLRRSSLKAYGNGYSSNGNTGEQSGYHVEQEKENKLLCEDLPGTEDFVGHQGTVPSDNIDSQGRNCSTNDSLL
Text: We then have tested the in vitro activity of (-)-hydroxymatairesinol (two epimers; 7S,8R,8'R and 7R,8R,8'R), (-)(7S,8R,8'R)-hydroxymatairesinol, (+)-lariciresinol, (-)-secoisolariciresinol, knot-wood extracts of Picea abies and Abies alba against β2-adrenergic receptor, in a cellular based assay, according to the Table 1 below (Baker J.G. (2005), Brit. J. Pharmacol., 144: 317). Table 1: Test of the agonist effect of compounds on the human β2-adrenergic receptor
Mammalian recombinant cells (CHO cells) stably expressing human β2-adrenergic receptor were suspended in HBSS buffer (Invitrogen) complemented with 20 mM HEPES (pH 7.4) and 500 µM IBMX, then distributed in microplates at a density of 10^4 cells/well and incubated for 30 min at room temperature in the presence of HBSS (basal control), the test compound or the reference agonist. For stimulated control measurement, separate assay wells contained 100 nM isoproterenol. Following incubation, the cells were lysed and the fluorescence acceptor (D2-labeled cAMP) and fluorescence donor (anti-cAMP antibody labeled with europium cryptate) were added. After 60 min at room temperature, the fluorescence transfer was measured at λex=337 nm and λem=620 and 665 nm using a microplate reader (Rubystar, BMG). The cAMP concentration was determined by dividing the signal measured at 665 nm by that measured at 620 nm (ratio). Results are expressed as a percent of the control response to 100 nM isoproterenol. The standard reference agonist is isoproterenol, which was tested in each experiment at several concentrations to generate a concentration-response curve from which its EC50 value was calculated.
The knot-wood extract for use of the invention as well as the lignans for use of the invention were tested at a concentration of 10^-5 M. Results are presented in Figure 4, and are expressed as a percentage of control agonist response, wherein 100% corresponds to the agonist response measured when cells are treated with 0.1 µM isoproterenol.
Then, we measured the corresponding EC50. EC50 represents the half maximal effective concentration, and refers to the concentration of a compound which induces a response halfway between the baseline and maximum.

TNF-α [2] = assay: elastase lung injury model, TNF-α in bronchoalveolar lavage fluid (ELISA); format: in vivo, mice; conditions: elastase group vs control group; HMR 30 mg/kg intratracheal instillation 15 min before elastase; BAL fluid after 24 hours; p < 0.05
Description: (§1) Male C57B1/6 WT mice (n=35) weighing between 20 and 25 g and aged of 8 weeks were obtained from Janvier Labs (Saint Berthevin, France) and were housed in the animal facility of the laboratory, with free access to water and food, for at least 1 week before the beginning of the experimentation.
(§2) The mice were randomly divided into six groups (n = 5-6/group). At t=0, mice were submitted to intratracheal instillation with lignan of the invention (HMR with a purity of 95%, 30 mg/kg body wt dissolved in PBS containing 1% DMSO) or with PBS with 1% DMSO. At t=15 min, mice were submitted to instillation either with 30 µl of elastase (1UI diluted in PBS) or 30 µl of LPS (10 µg/ml diluted in PBS) or 30 µl of PBS containing 1% DMSO. Mice were anesthetized with 150 µl of a solution containing xylazine 10% and ketamine 10% and sacrificed after 24 hours, and the bronchoalveolar lavage (BAL) fluid was collected for subsequent analyses.
(§3) Lungs were washed twice with 1ml of PBS then centrifuged at 10,000 rpm at 4°C for 10 min, and the resulting supernatant of the BAL was aliquoted as 210 µl samples and used for TNF-α cytokine protein quantification using an ELISA kit (mouse TNF-alpha DuoSet; R&D Systems Europe, Ltd., France).

TNF-α [3] = assay: cigarette smoke-induced lung injury model, TNF-α in bronchoalveolar lavage fluid (ELISA); format: in vivo; conditions: mice exposed to cigarette smoke vs non-treated mice; HMR 30 mg/kg intratracheal instillation daily for 4 days; BAL fluid at day 5; p < 0.05
Description: Male C57B1/6 WT mice (n=36) weighting between 20 and 25 g and aged of 9 weeks were obtained from Janvier Labs (Saint Berthevin, France) and were housed in the animal facility of the laboratory, with free access to water and food, for at least 1 week before the beginning of the experimentation.
The mice were randomly divided into six groups (n = 6/group). Mice were submitted to intratracheal instillation with 50 µl lignan of the invention (HMR with a purity of 95%, 30 mg/kg body wt dissolved in PBS containing 5%DMSO) or with PBS with 5% DMSO daily: After 3 hours mice were exposed to ambient air (AA) or to cigarette smoke (CS; 18 cigarettes per hour) for 3 hours.
This procedure was repeated 4 days. Mice were anesthetized with 250 µl of a solution containing xylazine 10% and ketamine 10% and were sacrificed at day 5. The BAL fluid was collected for analyses.
Lungs were washed twice with 1ml of PBS then centrifuged at 10,000 rpm at 4°C for 10 min, and the resulting supernatant of the BAL was aliquoted as 210 µl samples and used for TNF-α cytokine protein quantification using an ELISA kit (mouse TNFalpha DuoSet; R&D Systems Europe, Ltd., France).

TNF-α [4] = assay: LPS lung injury model, TNF-α in bronchoalveolar lavage fluid (ELISA); format: in vivo, mice; conditions: LPS group vs control group; HMR 30 mg/kg intratracheal instillation 15 min before LPS; BAL fluid after 24 hours; p < 0.05
Description: as §1, §2, §3

Structure (SMILES)	EC50 [1] [nM]	β2 adrenergic receptor agonist activity [1]	level of TNF-α (TNF-α [2])	level of TNF-α (TNF-α [3])	level of TNF-α (TNF-α [4])
COc1cc(C[C@@H](CO)[C@H](CO)Cc2ccc(O)c(OC)c2)ccc1O [Seco, (-)-Secoisolariciresinol]	2500	strong β2 adrenergic receptor agonist activity			
COc1cc(CC2C(=O)OCC2C(O)c2ccc(O)c(OC)c2)ccc1O (single isomer, unassigned; (-)) [HMR2]	1500	strong β2 adrenergic receptor agonist activity			
COc1cc(C[C@H]2C(=O)OC[C@@H]2C(O)c2ccc(O)c(OC)c2)ccc1O (mixture of isomers) [HMR, (-) hydroxymatairesinol (2 epimers: 7S,8R,8'R and 7R,8R,8'R)]	350	strong β2 adrenergic receptor agonist activity	significantly reduced	significant reduced level	significantly reduced
COc1cc(C[C@H]2CO[C@H](c3ccc(O)c(OC)c3)[C@H]2CO)ccc1O [Lari, (+)-lariciresinol]	1700	strong β2 adrenergic receptor agonist activity			
